# Columns and labels:
# HBT 3477 tumors [1] = assay: Tumoricidal effect in HBT 3477 breast cancer xenografts; format: in vivo, mice
# Description: Mice. Female athymic Balb/c nu/nu mice (7–10 week old; Harlan Sprague Dawley, Inc., Frederick, Md.) were maintained according to University of California animal care guidelines. HBT 3477 cells (3.0×10^6), harvested in log phase, were injected subcutaneously into one side of the abdomen for therapy studies (except where noted) and into both sides for immunopathology studies. Injection of RIT was by tail vein and cyclo-(Arg-Gly-Asp-D-Phe-[N-Me]-Val) was delivered by intraperitoneal (i.p.) injection. “Day 0” was designated as the time of RIT injection or, for first cRGD pentapeptide injection, for cRGD pentapeptide only group. Mice were sacrificed by cervical dislocation for immunopathology studies at the times indicated, when tumor burden exceeded allowed limits, or at 84 days for therapy studies.
# Control (No RIT) Treatment groups.
# High Dose RIT Treatment groups.
# Low Dose RIT Treatment groups. […] These doses were given on day 0, 1 hour prior to RIT, followed by 5 more doses on days 2, 4, 6, 8, and 10 (30 mice, all with 1 tumor each).
# Tumoricidal effect. Tumors were measured with calipers in 3 orthogonal diameters 3 times per week. Tumor volume was calculated using the formula for hemiellipsoids (DeNardo et al. Clin. Cancer Res., 3:71–79 (1997)). Initial tumor volume was defined as the volume on the day before treatment. Tumors that completely regressed were considered to have a volume of zero. […] For mice bearing two tumors with differing responses, tumor response was described according to both tumor responses. Mice dying prior to 30 days from toxicity were excluded from tumor response results.
# (§1) Statistical Analysis. Statistical analysis of mortality data for RIT and CMRIT method treated mice was performed using a Fisher Exact test with StatExact software to determine if mortality was different. Statistical analysis of therapy data was done using a Cochran Mantel Haenszel test to evaluate effect of RIT dose on outcome for RIT and CMRIT method groups. Comparison of cure rates to all other responses for RIT vs. CMRIT method groups was done by Fisher Exact test, with the best tumor response used for 2-tumored animals for statistical purposes. Statistical differences between immunopathology groups at the different time points were assessed by analysis of variance (ANOVA) (Fisher PLSD) using STATview software as appropriate, with p<0.05 considered significant.
# [2] = Toxicity: mortality, weights and blood counts; format: in vivo
# Description: Toxicity. Weights and blood counts were measured 2–3 times per week for 12 weeks post-injection or until death. Blood samples were collected from tail veins using 2 μL microcapillary pipets. Samples from mice within a dose group were pooled, and diluted 1:200 in phosphate-buffered saline (PBS, 0.9% saline/10 mM sodium phosphate, pH 7.6) for red blood cell (RBC) counts; 1:100 in 1% (w/v) ammonium oxalate for platelet counts; or 1:20 in 3% (w/v) acetic acid for white blood cell (WBC) counts.
# as §1
# HBT 3477 tumors [3] = assay: TUNEL analysis of total cell apoptosis in tumors; format: in vivo, mice; conditions: 6 days
# Description: (§2) Cellular immunopathology groups. Unless otherwise noted, groups consisted of 2 mice, each bearing 2 tumors, for a total of 4 tumors analyzed at each time point. […] The tumors were removed, cut in half, frozen in optimal cutting temperature (O.C.T). medium, and stored at about −70° C. until sectioning (10-μm sections). All time points were evaluated for apoptosis by terminal deoxynucleotidyl transferase-mediated dUTP nick end labeling (TUNEL, Cavrieli, et al. J. Cell Bio., 119: 493–501 (1992)) analysis, and selected time points (untreated, 1,5 and 6 days) were assessed for differences in proliferation rate (Ki67) and microvessel density (CD31).
# TUNEL analysis of total and endothelial apoptosis. Tumors were cut into 10-μm sections onto Fisher superplus slides (Fisher, Pittsburgh, Pa.), air-dried for 1 hour and frozen at about −70° C. until TUNEL analysis with ApopTag Red kit (rhodamine used as label, Intergen, Purchase, N.Y.) following the manufacturer's instructions subsequent to fixation for about 10 minutes in 1% paraformadehyde. After TUNEL, the slides were rinsed, and incubated overnight at 4° C. with a rat anti-mouse MAb against CD31 at 1:100 dilution (Pharmingen, San Diego, Calif.) to identify endothelial cells. Slides were rinsed and incubated for 1 hour with an anti-rat antibody linked to FITC (1:50 dilution) (Pharmingen). Slides were rinsed, dipped briefly in 4,6-diamidino-2-phenylindole (DAPI, 0.2 μg/ml) for background nuclear stain, rinsed again and mounted, followed by storage in the dark at about 4° C. until quantitation.
# Quantitation of total apoptosis and endothelial apoptosis. An Olympus microscope equipped with a Chroma Pinkle Filter Set (Chroma, Brattleboro, Vt.) with excitation filters for UV, FITC and rhodamine and dual/triple bandpass filters to allow simultaneous viewing of multiple wavelengths, was used to quantify 6 randomly chosen X600 fields (150,000 μm^2/field) in non-necrotic regions of each section. Fields were chosen to cover the entire viewing area using DAPI label, which typically included about 300–350 cells. Total apoptosis was determined by the average number of positive nuclei per field for each tumor while endothelial apoptosis was determined using the same fields with a dual bandpass filter to count cells labeled by both FITC (CD31) and rhodamine (TUNEL). Fields were chosen from apparently non-necrotic areas of tumor sections, as HBT 3477 xenografts typically grow quickly in nude mice, doubling their volumes in 6 days, resulting in central necrosis of untreated tumors. As TUNEL may label necrotic cells, though less intensely, this strategy was chosen over a completely random process.
# HBT 3477 tumors [4] = assay: Proliferation (Ki67) in tumors; format: in vivo, mice
# Description: as §2
# (§3) Proliferation and microvessel density Analyses. 10-μm sections of tumors from untreated and mice treated with cRGD pentapeptide, RIT and CMRIT method and sacrificed at 1, 5 and 6 days after treatment were fixed for 10 minutes in ice-cold acetone, rinsed in PBS, and briefly incubated in methanol with 0.6% H2O2 (5 minutes). After rinsing in PBS, sections were blocked for 10 minutes with 10% goat serum and 1% bovine serum albumin in PBS. Mouse anti-Ki67 MAb (Pharmingen, clone B56) was applied in blocking solution (6.25 μg/ml) and the slides were incubated at room temperature for 2 hours, followed by rinsing in PBS. Goat anti-mouse rhodamine-labeled or goat anti-mouse Cy-3-labeled antibody was applied (Jackson ImmunoResearch Laboratories, Inc, West Grove, Pa., 1:100) and the slides were incubated for 1 hour at room temperature. After rinsing in PBS the sections were incubated for 1 hour at room temperature with rat anti-mouse CD31 antibody (Pharmingen, 1:100), followed by rinsing in PBS and a subsequent 1 hour incubation with goat anti-rat FITC-labeled antibody (Pharmingen, 1:50). After rinsing in PBS, the slides were counterstained with DAPI (0.4 μg/ml) and mounted in Biomeda gel mount (Fisher) under coverslips. Quantitation of Ki67 was performed using an Olympus microscope at X1000 magnification for assessment of proliferation. The mean total number of Ki67-positive cells/field in a tumor was determined by counts from 6 fields per tumor chosen randomly by DAPI stain. Microvessel density was determined by counting the number of CD31-stained vessels per random field at X400 magnification. Any endothelial cell or cell cluster positive for CD31, which was separate from an adjacent cluster, was counted as one microvessel. Six randomly chosen fields per tumor section were used to establish an average for each tumor. Average microvessel density for a treatment group was determined by averaging the values from 4 tumors/group.
# HBT 3477 tumors [5] = assay: Microvessel density (CD31) in tumors; format: in vivo, mice
# Description: as §2, §3
# HBT 3477 cells = assay: HBT 3477 cell binding radioimmunoreactive assay (RIA); parameters: species or system human
# Text: ^90Y-DOTA-peptide-ChL6. ChL6 was conjugated to 1,4,7,10-tetraazacyclododecane-N,N′,N″,N′″-tetraacetic acid (DOTA) and radiolabeled with ^90Y as described by DeNardo, et al. J. Nucl. Med., 36:829–836, with greater than or equal to 80 percent efficiency to prepare ^90Y-DOTA-peptide-ChL6. ^90Y-DOTA-peptide-ChL6 was examined for structural and functional integrity by molecular sieving high performance liquid chromatography (HPLC), cellulose acetate electrophoresis (CAE), and HBT 3477 cell binding radioimmunoreactive assay (RIA). […] Immunoreactive binding to live cells indicated greater than 92% reactivity; administration as a single dose of 200, 230 or 260 […] ^90Y-DOTA-peptide-ChL6.
# HBT 3477 tumors [6] = conditions: 250 μg provided 1 hour before RIT; cited from earlier work
# [7] = combined RIT 200–260 μCi, best response (parentheses)
# [8] = combined RIT 200–260 μCi, worst response
# [9] = high dose RIT 260 μCi, best response (parentheses)
# [10] = high dose RIT 260 μCi, worst response
# [11] = low dose RIT, best response (parentheses)
substance,measurement,setting,value
"^90Y-1,4,7,10-tetraazacyclododecane-N,N′,N″,N′″-tetraacetic acid-peptide-ChL6 [RIT]",CR complete regression (number of mice),HBT 3477 tumors [1]; [7],10
same,Cure (number of mice),HBT 3477 tumors [1]; [7],9
same,NR no regression (number of mice),HBT 3477 tumors [1]; [7],0
same,PR partial regression (number of mice),HBT 3477 tumors [1]; [7],27
same,CR complete regression (number of mice),HBT 3477 tumors [1]; [8],6
same,NR no regression (number of mice),HBT 3477 tumors [1]; [8],3
same,PR partial regression (number of mice),HBT 3477 tumors [1]; [8],29
same,cure rate,HBT 3477 tumors [1]; combined low and high dose RIT,20%
same,Cure (number of mice),"HBT 3477 tumors [1]; combined low and high dose RIT 200–260 μCi, worst response",8
same,Cure (number of mice),"HBT 3477 tumors [1]; high dose RIT 260 μCi (CMRIT + cRGD 250 μg × 6), worst response",4
same,CR complete regression (number of mice),HBT 3477 tumors [1]; [9],6
same,PR partial regression (number of mice),HBT 3477 tumors [1]; [9],16
same,CR complete regression (number of mice),HBT 3477 tumors [1]; [10],2
same,NR no regression (number of mice),HBT 3477 tumors [1]; [10],0
same,PR partial regression (number of mice),HBT 3477 tumors [1]; [10],20
same,cures,HBT 3477 tumors [1]; high dose RIT (260 μCi),15%
same,Cure (number of mice),"HBT 3477 tumors [1]; low dose RIT 200–230 μCi (CMRIT 200 μCi + cRGD 250 μg × 6), worst response",4
same,Cure (number of mice),"HBT 3477 tumors [1]; low dose RIT 200–230 μCi, best response (parentheses)",5
same,cures,HBT 3477 tumors [1]; low dose RIT (200–230 μCi),25%
same,NR no regression (number of mice),HBT 3477 tumors [1]; [11],0
same,PR partial regression (number of mice),HBT 3477 tumors [1]; [11],11
same,CR complete regression (number of mice),"HBT 3477 tumors [1]; low dose RIT, worst response",4
same,NR no regression (number of mice),"HBT 3477 tumors [1]; low dose RIT, worst response",3
same,PR partial regression (number of mice),"HBT 3477 tumors [1]; low dose RIT, worst response",9
same,"weight, RBC, WBC and platelet counts, in words",[2]; comparison as stated in the sentence,"decreased weight, RBC, WBC and platelet counts"
same,mortality,[2]; high dose RIT (260 μCi),33%
same,mortality,[2]; low dose RIT (200–230 μCi),29%
same,TUNEL-positive tumor and endothelial cells (total cells),HBT 3477 tumors [3],21.4±2.9 cells/field
same,"total cell apoptosis, percent of cells",HBT 3477 tumors [3],6.1%
same,"Proliferating cells, average no. of Ki67-positive cells","HBT 3477 tumors [4]; Day 1, six fields per tumor at 1000X",18 ± 1
same,"Proliferating cells, average no. of Ki67-positive cells",HBT 3477 tumors [4]; Day 5,13 ± 1 f
same,"Proliferating cells, average no. of Ki67-positive cells",HBT 3477 tumors [4]; Day 6,7 ± 1
same,"Microvessel density, average number ± SE of CD31 positive regions","HBT 3477 tumors [5]; Day 1, six fields per tumor at 400X",15 ± 1
same,"Microvessel density, average number ± SE of CD31 positive regions",HBT 3477 tumors [5]; Day 5,13 ± 1
same,"Microvessel density, average number ± SE of CD31 positive regions",HBT 3477 tumors [5]; Day 6,9 ± 1 e
same,"Immunoreactive binding to live cells, reactivity",HBT 3477 cells,greater than 92%
cyclo-(Arg-Gly-Asp-D-Phe-1-aminocyclohexane carboxylic acid) [EMD 270179],increased uptake of RIT by HBT 3477 tumors,HBT 3477 tumors [6],up to 50%
